Biological target: T1, full length human TPH1 (Homo sapiens, UniProt P17752)
T1 construct: To generate the enzyme, full length human TPH1 is cloned into the plasmid pET20b(+); made in house; host or cells: E. coli
T1 sequence (P17752 1-444): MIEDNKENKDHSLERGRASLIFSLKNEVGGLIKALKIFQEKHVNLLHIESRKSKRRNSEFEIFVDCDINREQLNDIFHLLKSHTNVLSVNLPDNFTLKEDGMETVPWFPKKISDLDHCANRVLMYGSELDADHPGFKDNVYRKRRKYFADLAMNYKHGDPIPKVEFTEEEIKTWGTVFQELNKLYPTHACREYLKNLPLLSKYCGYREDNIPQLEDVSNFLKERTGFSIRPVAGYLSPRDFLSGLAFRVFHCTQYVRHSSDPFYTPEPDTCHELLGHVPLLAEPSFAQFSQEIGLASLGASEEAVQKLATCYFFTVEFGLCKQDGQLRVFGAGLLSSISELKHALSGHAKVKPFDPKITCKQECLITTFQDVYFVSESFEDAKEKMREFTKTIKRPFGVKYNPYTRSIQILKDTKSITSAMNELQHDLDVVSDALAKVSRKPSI
Test: Biochemical in vitro assay using fluorescence readout (TPH1 enzyme activity)
Conditions: Table 1, mean where determined several times
Method in brief: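 IC50 (mean of repeats) derived from 5-hydroxy-L-tryptophan fluorescence at 540 nm (300 nm excitation) relative to vehicle, after perchloric acid stop. Reaction: 60 min, 15° C., pH 7.6 Tris-HCl, 40 μM L-tryptophan, 100 μM 6-methyltetrahydropterine, DTT, catalase, with 40-80 nM purified full-length human TPH1 from E. coli.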

| SMILES | IC50 [nM] |
| --- | --- |
| Cc1ccc(C2c3c(nc4n3CCC4)CCN2C(=O)COc2ccc(NS(C)(=O)=O)nc2Cl)c(F)c1 (centres unmarked) [Example 2.2.1, N-(6-chloro-5-(2-(1-(2-fluoro-4-methylphenyl)-3,4,7,8-tetrahydro-1H-pyrrolo[2′,1′:2,3]imidazo[4,5-c]pyridin-2(6H)-yl)-2-oxoethoxy)pyridin-2-yl)methanesulfonamide] | 15 |
| CCc1nc(NS(C)(=O)=O)ccc1OCC(=O)N1CCc2nc3n(c2C1c1ccc(C)c(F)c1F)CCC3 (centres unmarked) [Example 2.3.1, N-(5-(2-(1-(2,3-difluoro-4-methylphenyl)-3,4,7,8-tetrahydro-1H-pyrrolo[2′,1′:2,3]imidazo[4,5-c]pyridin-2(6H)-yl)-2-oxoethoxy)-6-ethylpyridin-2-yl)methanesulfonamide] | 8 |
| CCc1nc(N2CCCS2(=O)=O)ccc1OCC(=O)N1CCc2nc3n(c2C1c1sc(C)nc1C)CCC3 (centres unmarked) [Example 2.4.1, 1-(1-(2,4-dimethylthiazol-5-yl)-3,4,7,8-tetrahydro-1H-pyrrolo[2′,1′:2,3]imidazo[4,5-c]pyridin-2(6H)-yl)-2-((6-(1,1-dioxidoisothiazolidin-2-yl)-2-ethylpyridin-3-yl)oxy)ethanone] | 8 |
| CCc1nc(NS(C)(=O)=O)ccc1OCC(=O)N1CCc2nc3n(c2[C@@H]1c1sc(C)nc1C)CCC3 [Example 2.4.2, (R)-N-(5-(2-(1-(2,4-dimethylthiazol-5-yl)-3,4,7,8-tetrahydro-1H-pyrrolo[2′,1′:2,3]imidazo[4,5-c]pyridin-2(6H)-yl)-2-oxoethoxy)-6-ethylpyridin-2-yl)methanesulfonamide] | 7 |
| CCc1nc(C(=O)NC2CC2)ccc1OCC(=O)N1CCc2nc3n(c2[C@@H]1c1sc(C)nc1C)CCC3 [Example 2.4.3, (R)-N-cyclopropyl-5-(2-(1-(2,4-dimethylthiazol-5-yl)-3,4,7,8-tetrahydro-1H-pyrrolo[2′,1′:2,3]imidazo[4,5-c]pyridin-2(6H)-yl)-2-oxoethoxy)-6-ethylpicolinamide] | 9 |
| CCc1nc(N2CCCS2(=O)=O)ccc1OCC(=O)N1CCc2nc3n(c2[C@@H]1c1sc(C)nc1C)CCC3 [Example 2.4.4, (R)-1-(1-(2,4-dimethylthiazol-5-yl)-3,4,7,8-tetrahydro-1H-pyrrolo[2′,1′:2,3]imidazo[4,5-c]pyridin-2(6H)-yl)-2-((6-(1,1-dioxidoisothiazolidin-2-yl)-2-ethylpyridin-3-yl)oxy)ethanone] | 7 |
| CS(=O)(=O)Nc1ccc(OCC(=O)N2CCc3nc4n(c3C2c2ccc(Cl)cc2F)CCCCC4)c(Cl)n1 (centres unmarked) [Example 3.1.1, N-(6-chloro-5-(2-(1-(4-chloro-2-fluorophenyl)-3,4,7,8,9,10-hexahydro-1H-pyrido[4′,3′:4,5]imidazo[1,2-a]azepin-2(6H)-yl)-2-oxoethoxy)pyridin-2-yl)methanesulfonamide] | 26 |
| Cc1ccc(C2c3c(nc4n3CCCCC4)CCN2C(=O)COc2ccc(NS(C)(=O)=O)nc2Cl)c(F)c1 (centres unmarked) [Example 3.2.1, N-(6-chloro-5-(2-(1-(2-fluoro-4-methylphenyl)-3,4,7,8,9,10-hexahydro-1 H-pyrido[4′,3′:4,5]imidazo-[1,2-a]azepin-2(6H)-yl)-2-oxoethoxy)pyridin-2-yl)methanesulfonamide] | 21 |
| CS(=O)(=O)Nc1ccc(OCC(=O)N2CCc3nc4n(c3C2c2ccc(Cl)cc2F)CCS4)c(Cl)n1 (centres unmarked) [Example 4.1.1, N-(6-chloro-5-(2-(5-(4-chloro-2-fluorophenyl)-2,3,7,8-tetrahydrothiazolo[2′,3′:2,3]imidazo[4,5-c]pyridin-6(5H)-yl)-2-oxoethoxy)pyridin-2-yl)methanesulfonamide] | 19 |
| O=C(COc1ccc(N2CCCS2(=O)=O)nc1Cl)N1CCc2nc3n(c2C1c1ccc(Cl)cc1F)CCS3 (centres unmarked) [Example 4.1.2, 1-(5-(4-chloro-2-fluorophenyl)-2,3,7,8-tetrahydrothiazolo[2′,3′:2,3]imidazo[4,5-c]pyridin-6(5H)-yl)-2-((2-chloro-6-(1,1-dioxidoisothiazolidin-2-yl)pyridin-3-yl)oxy)ethanone] | 7 |
| CCc1nc(NS(C)(=O)=O)ccc1OCC(=O)N1CCc2nc3n(c2C1c1ccc(Cl)cc1F)CCS3 (centres unmarked) [Example 4.1.3, N-(5-(2-(5-(4-chloro-2-fluorophenyl)-2,3,7,8-tetrahydrothiazolo[2′,3′:2,3]imidazo[4,5-c]pyridin-6(5H)-yl)-2-oxoethoxy)-6-ethylpyridin-2-yl)methanesulfonamide] | 16 |
| CN(c1ccc(OCC(=O)N2CCc3nc4n(c3C2c2ccc(Cl)cc2F)CCS4)c(Cl)n1)S(C)(=O)=O (centres unmarked) [Example 4.1.4, N-(6-chloro-5-(2-(5-(4-chloro-2-fluorophenyl)-2,3,7,8-tetrahydrothiazolo[2′,3′:2,3]imidazo[4,5-c]pyridin-6(5H)-yl)-2-oxoethoxy)pyridin-2-yl)-N-methylmethanesulfonamide] | 16 |
| CN1CCN(c2ccc(OCC(=O)N3CCc4nc5n(c4C3c3ccc(Cl)cc3F)CCS5)c(Cl)n2)S1(=O)=O (centres unmarked) [Example 4.1.5, 1-(5-(4-chloro-2-fluorophenyl)-2,3,7,8-tetrahydrothiazolo[2′,3′:2,3]imidazo[4,5-c]pyridin-6(5H)-yl)-2-((2-chloro-6-(5-methyl-1,1-dioxido-1,2,5-thiadiazolidin-2-yl)pyridin-3-yl)oxy)ethanone] | 12 |
| CCc1nc(N2CCCS2(=O)=O)ccc1OCC(=O)N1CCc2nc3n(c2C1c1ccc(Cl)cc1F)CCS3 (centres unmarked) [Example 4.1.6, 1-(5-(4-chloro-2-fluorophenyl)-2,3,7,8-tetrahydrothiazolo[2′,3′:2,3]imidazo[4,5-c]pyridin-6(5H)-yl)-2-((6-(1,1-dioxidoisothiazolidin-2-yl)-2-ethylpyridin-3-yl)oxy)ethanone] | 12 |
| CCc1nc(NS(=O)(=O)N(C)C)ccc1OCC(=O)N1CCc2nc3n(c2C1c1ccc(Cl)cc1F)CCS3 (centres unmarked) [Example 4.1.7, N-(5-(2-(5-(4-chloro-2-fluorophenyl)-2,3,7,8-tetrahydrothiazolo[2′,3′:2,3]imidazo[4,5-c]pyridin-6(5H)-yl)-2-oxoethoxy)-6-ethylpyridin-2-yl)-N′,N′-dimethyl-sulfamide] | 76 |
| CCc1nc(C)ccc1OCC(=O)N1CCc2nc3n(c2C1c1ccc(Cl)cc1F)CCS3 (centres unmarked) [Example 4.1.8, 1-(5-(4-chloro-2-fluorophenyl)-2,3,7,8-tetrahydrothiazolo[2′,3′:2,3]imidazo[4,5-c]pyridin-6(5H)-yl)-2-((2-ethyl-6-methylpyridin-3-yl)oxy)ethanone] | 28 |
| CCc1nc(C(=O)NC2CC2)ccc1OCC(=O)N1CCc2nc3n(c2C1c1ccc(Cl)cc1F)CCS3 (centres unmarked) [Example 4.1.9, 5-(2-(5-(4-chloro-2-fluorophenyl)-2,3,7,8-tetrahydrothiazolo[2′,3′:2,3]imidazo[4,5-c]pyridin-6(5H)-yl)-2-oxoethoxy)-N-cyclopropyl-6-ethylpicolinamide] | 31 |
| CCc1nc(NS(C)(=O)=O)ncc1OCC(=O)N1CCc2nc3n(c2C1c1ccc(Cl)cc1F)CCS3 (centres unmarked) [Example 4.1.10, N-(5-(2-(5-(4-chloro-2-fluorophenyl)-2,3,7,8-tetrahydrothiazolo[2′,3′:2,3]imidazo[4,5-c]pyridin-6(5H)-yl)-2-oxoethoxy)-4-ethylpyrimidin-2-yl)methanesulfonamide] | 67 |
| CCc1nc(Cl)ncc1OCC(=O)N1CCc2nc3n(c2C1c1ccc(Cl)cc1F)CCS3 (centres unmarked) [Example 4.1.11, 1-(5-(4-chloro-2-fluorophenyl)-2,3,7,8-tetrahydrothiazolo[2′,3′:2,3]imidazo[4,5-c]pyridin-6(5H)-yl)-2-((2-chloro-4-ethylpyrimidin-5-yl)oxy)ethanone] | 185 |
| O=C(NC1CC1)c1ccc(OCC(=O)N2CCc3nc4n(c3C2c2ccc(Cl)cc2F)CCS4)c(Cl)n1 (centres unmarked) [Example 4.1.12, 6-chloro-5-(2-(5-(4-chloro-2-fluorophenyl)-2,3,7,8-tetrahydrothiazolo[2′,3′:2,3]imidazo[4,5-c]pyridin-6(5H)-yl)-2-oxoethoxy)-N-cyclopropylpicolinamide] | 9 |
| O=C(COc1ccc(C2CC2)nc1Cl)N1CCc2nc3n(c2C1c1ccc(Cl)cc1F)CCS3 (centres unmarked) [Example 4.1.13, 1-(5-(4-chloro-2-fluorophenyl)-2,3,7,8-tetrahydrothiazolo[2′,3′:2,3]imidazo[4,5-c]pyridin-6(5H)-yl)-2-((2-chloro-6-cyclopropylpyridin-3-yl)oxy)ethanone] | 11 |
| CCc1nc(C2CC2)ccc1OCC(=O)N1CCc2nc3n(c2C1c1ccc(Cl)cc1F)CCS3 (centres unmarked) [Example 4.1.14, 1-(5-(4-chloro-2-fluorophenyl)-2,3,7,8-tetrahydrothiazolo[2′,3′:2,3]imidazo[4,5-c]pyridin-6(5H)-yl)-2-((6-cyclopropyl-2-ethylpyridin-3-yl)oxy)ethanone] | 16 |
| CCc1nc(NS(C)(=O)=O)ccc1OCC(=O)N1CCc2nc3n(c2[C@@H]1c1ccc(Cl)cc1F)CCS3 [Example 4.1.15, (S)-N-(5-(2-(5-(4-chloro-2-fluorophenyl)-2,3,7,8-tetrahydrothiazolo[2′,3′:2,3]imidazo[4,5-c]pyridin-6(5H)-yl)-2-oxoethoxy)-6-ethylpyridin-2-yl)methanesulfonamide] | 6 |

Reference: US10189839B2, “Tricyclic imidazole compounds as inhibitors of tryptophan hydroxylase” (ACTELION PHARMACEUTICALS LTD, priority 2013, dated 2019)
